Where a SMILES comes first, the peptide text is derived from it. [ ]: non-standard residue; d: D form. pT = C[C@@H](OP(=O)(O)O)[C@H](N)C(=O)O; pS = N[C@@H](COP(=O)(O)O)C(=O)O
Legend:
[1] = target: T1, 14-3-3η (Homo sapiens, UniProt Q04917); experiment: direct binding FP assay, 14-3-3η; conditions: FITC-labeled peptide; FP buffer pH 7.4; 60 min room temperature; mean ± S.D., n = 3; values for 14-16 are estimated (Fig. S4); read-out: KD toward 14-3-3η (FP assay)
T1 construct: N-terminally His6-tagged 14-3-3 full-length proteins were expressed with heterologous bacterial expression; made in house
T1 sequence (Q04917 1-246): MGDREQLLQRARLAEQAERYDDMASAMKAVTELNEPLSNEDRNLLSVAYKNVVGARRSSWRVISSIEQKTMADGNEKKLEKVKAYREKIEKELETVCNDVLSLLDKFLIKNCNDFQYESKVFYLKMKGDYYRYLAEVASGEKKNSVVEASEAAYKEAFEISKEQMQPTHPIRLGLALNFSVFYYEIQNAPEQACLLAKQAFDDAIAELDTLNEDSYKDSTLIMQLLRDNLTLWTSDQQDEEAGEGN
Procedure: For the FP assay, the 14-3-3 proteins were diluted to a protein-specific start concentration in FP buffer (10 mM HEPES, pH 7.4, 150 mM NaCl, 2 mM DTT, 0.01% Tween 20). DMSO stocks of peptides were diluted in FP buffer to a concentration of 30 nM. For the assay, 10 μl of FP buffer were pipetted in 20 wells of a 384-well Corning black round bottom plate. A dilution series with 10 μl of protein solution was performed, and 5 μl of peptide solution was added to each well for a final volume of 15 μl. The plate was incubated for 60 min at room temperature. Measurement was performed at 25 °C in a Tecan Spark20M plate reader (λex = 470 nm, λem = 525 nm). Data analysis was performed with GraphPad Prism (version 5.03), and KD values were determined via a nonlinear regression fit of dose-response curves with variable slope (four parameters).

[2] = target: T1, 14-3-3η; experiment: isothermal titration calorimetry (ITC) with 14-3-3η; assay type: binding
Procedure: The ITC experiments were performed on an automated MicroCal iTC200 (Malvern Panalytical). To prepare 14-3-3 proteins for ITC measurements, a buffer exchange to ITC buffer (50 mM HEPES, pH 7.4, 250 mM NaCl, 20 mM MgCl2) was performed on a Superdex 75 10/300 GL column (ÄKTA Pure FPLC system, GE Healthcare). For peptides 1, 7, and 17, a 500 μM solution of protein was titrated to a 50 μM solution of peptide in 18 steps (2-μl volume in 4 s, 180-s spacing) at 25 °C. For peptide 11, a 250 μM solution of protein was titrated to a 12.5 μM solution of peptide with the settings mentioned before. The reference power was set to […], and the stirring speed was set to 750 rpm. Analysis was performed using MicroCal ITC-ORIGIN analysis software.

Row | Molecule | Kd [1] [µM] | also measured
1 | CC(C)C[C@H](NC(=O)[C@@H](NC(=O)[C@@H](NC(=O)[C@H](C)NC(=O)[C@H](CO)NC(=O)[C@H](C)NC(=O)[C@@H]1CCCN1C(=O)[C@H](CC(N)=O)NC(=O)[C@@H](NC(=O)[C@@H](NC(=O)[C@H](C)NC(=O)[C@H](CO)NC(=O)[C@H](C)NC(=O)[C@H](CO)NC(=O)[C@@H]1CCCN1C(=O)[C@@H](NC(=O)[C@@H](NC(=O)[C@H](CO)NC(=O)[C@H](C)NC(=O)[C@@H](NC(=O)[C@@H]1CCCN1C(=O)[C@H](CO)NC(=O)[C@H](COP(=O)(O)O)NC(=O)[C@H](CC(N)=O)NC(=O)[C@H](C)NC(=O)[C@H](CC(N)=O)NC(=O)[C@H](CCCCN)NC(=O)[C@H](CC(N)=O)NC(=O)[C@H](CCCCN)NC(=O)[C@@H](N)CCC(=O)O)C(C)C)[C@@H](C)O)[C@@H](C)O)[C@@H](C)O)[C@@H](C)O)[C@@H](C)O)[C@@H](C)O)C(=O)N[C@@H](CC(=O)O)C(=O)N[C@@H](CCC(N)=O)C(=O)N[C@@H](COP(=O)(O)O)C(=O)N[C@@H](CCCCN)C(=O)N[C@@H](C)C(=O)N[C@@H](Cc1c[nH]c2ccccc12)C(=O)N[C@@H](CC(N)=O)C(=O)N[C@@H](CCCNC(=N)N)C(=O)O [compound 13] (H-EKNKNAN[pS]SPVASTTPSASATTNPASATTLDQ[pS]KAWNR-OH; N-terminus assumed) | > 83 | 
2 | CC(C)C[C@H](NC(=O)[C@@H](NC(=O)[C@@H](NC(=O)[C@H](C)NC(=O)[C@H](COP(=O)(O)O)NC(=O)[C@H](C)NC(=O)[C@@H]1CCCN1C(=O)[C@H](CC(N)=O)NC(=O)[C@@H](NC(=O)[C@@H](NC(=O)[C@H](C)NC(=O)[C@H](CO)NC(=O)[C@H](C)NC(=O)[C@H](CO)NC(=O)[C@@H]1CCCN1C(=O)[C@@H](NC(=O)[C@@H](NC(=O)[C@H](CO)NC(=O)[C@H](C)NC(=O)[C@@H](NC(=O)[C@@H]1CCCN1C(=O)[C@H](CO)NC(=O)[C@H](COP(=O)(O)O)NC(=O)[C@H](CC(N)=O)NC(=O)[C@H](C)NC(=O)[C@H](CC(N)=O)NC(=O)[C@H](CCCCN)NC(=O)[C@H](CC(N)=O)NC(=O)[C@H](CCCCN)NC(=O)[C@@H](N)CCC(=O)O)C(C)C)[C@@H](C)O)[C@@H](C)O)[C@@H](C)O)[C@@H](C)O)[C@@H](C)O)[C@@H](C)O)C(=O)N[C@@H](CC(=O)O)C(=O)N[C@@H](CCC(N)=O)C(=O)N[C@@H](CO)C(=O)N[C@@H](CCCCN)C(=O)N[C@@H](C)C(=O)N[C@@H](Cc1c[nH]c2ccccc12)C(=O)N[C@@H](CC(N)=O)C(=O)N[C@@H](CCCNC(=N)N)C(=O)O [compound 10] (H-EKNKNAN[pS]SPVASTTPSASATTNPA[pS]ATTLDQSKAWNR-OH) | 0.42 ± 0.03 | 
3 | CC(=O)N[C@@H](CCC(=O)O)C(=O)N[C@@H](CCCCN)C(=O)N[C@@H](CC(N)=O)C(=O)N[C@@H](CCCCN)C(=O)N[C@@H](CC(N)=O)C(=O)N[C@@H](C)C(=O)N[C@@H](CC(N)=O)C(=O)N[C@@H](COP(=O)(O)O)C(=O)N[C@@H](CO)C(=O)N1CCC[C@H]1C(=O)N[C@H](C(=O)N[C@@H](C)C(=O)N[C@@H](CO)C(=O)N[C@H](C(=O)N[C@H](C(=O)N1CCC[C@H]1C(=O)N[C@@H](CO)C(=O)N[C@@H](C)C(=O)N[C@@H](CO)C(=O)N[C@@H](C)C(=O)N[C@H](C(=O)N[C@H](C(=O)N[C@@H](CC(N)=O)C(=O)N1CCC[C@H]1C(=O)N[C@@H](C)C(=O)N[C@@H](CO)C(=O)N[C@@H](C)C(=O)N[C@H](C(=O)N[C@H](C(=O)N[C@@H](CC(C)C)C(=O)N[C@@H](CC(=O)O)C(=O)N[C@@H](CCC(N)=O)C(=O)N[C@@H](CO)C(=O)N[C@@H](CCCCN)C(=O)N[C@@H](C)C(=O)N[C@@H](Cc1c[nH]c2ccccc12)C(=O)N[C@@H](CC(N)=O)C(=O)N[C@@H](CCCNC(=N)N)C(=O)O)[C@@H](C)O)[C@@H](C)O)[C@@H](C)O)[C@@H](C)O)[C@@H](C)O)[C@@H](C)O)C(C)C [compound 7] (Ac-EKNKNAN[pS]SPVASTTPSASATTNPASATTLDQSKAWNR-OH) |  | binding stoichiometry N (ITC, 14-3-3η) ([2]; T = 298 K, peptide per 14-3-3 protomer, mean ± S.D., n = 3): 1.13 ± 0.18
4 | CC(C)C[C@H](NC(=O)[C@@H](NC(=O)[C@@H](NC(=O)[C@H](C)NC(=O)[C@H](CO)NC(=O)[C@H](C)NC(=O)[C@@H]1CCCN1C(=O)[C@H](CC(N)=O)NC(=O)[C@@H](NC(=O)[C@@H](NC(=O)[C@H](C)NC(=O)[C@H](CO)NC(=O)[C@H](C)NC(=O)[C@H](CO)NC(=O)[C@@H]1CCCN1C(=O)[C@@H](NC(=O)[C@@H](NC(=O)[C@H](CO)NC(=O)[C@H](C)NC(=O)[C@@H](NC(=O)[C@@H]1CCCN1C(=O)[C@H](CO)NC(=O)[C@H](COP(=O)(O)O)NC(=O)[C@H](CC(N)=O)NC(=O)[C@H](C)NC(=O)[C@H](CC(N)=O)NC(=O)[C@H](CCCCN)NC(=O)[C@H](CC(N)=O)NC(=O)[C@H](CCCCN)NC(=O)[C@@H](N)CCC(=O)O)C(C)C)[C@@H](C)O)[C@@H](C)O)[C@@H](C)O)[C@@H](C)O)[C@@H](C)O)[C@@H](C)OP(=O)(O)O)C(=O)N[C@@H](CC(=O)O)C(=O)N[C@@H](CCC(N)=O)C(=O)N[C@@H](CO)C(=O)N[C@@H](CCCCN)C(=O)N[C@@H](C)C(=O)N[C@@H](Cc1c[nH]c2ccccc12)C(=O)N[C@@H](CC(N)=O)C(=O)N[C@@H](CCCNC(=N)N)C(=O)O [compound 12] (H-EKNKNAN[pS]SPVASTTPSASATTNPASAT[pT]LDQSKAWNR-OH) | 0.18 ± 0.01 | 
5 | 17: APN 36–73 pThr^63 peptide [compound 17] |  | ITC result with 14-3-3η (in words) ([2]; 500 μM protein titrated to 50 μM peptide, 25 °C, Fig. S8): no heat change could be observed

Now from value to molecule, other results behind:

Row | Kd [1] [µM] | Molecule | also measured
6 | 18 ± 2.1 | CC(C)C[C@H](NC(=O)[C@@H](NC(=O)[C@@H](NC(=O)[C@H](C)NC(=O)[C@H](CO)NC(=O)[C@H](C)NC(=O)[C@@H]1CCCN1C(=O)[C@H](CC(N)=O)NC(=O)[C@@H](NC(=O)[C@@H](NC(=O)[C@H](C)NC(=O)[C@H](CO)NC(=O)[C@H](C)NC(=O)[C@H](CO)NC(=O)[C@@H]1CCCN1C(=O)[C@@H](NC(=O)[C@@H](NC(=O)[C@H](CO)NC(=O)[C@H](C)NC(=O)[C@@H](NC(=O)[C@@H]1CCCN1C(=O)[C@H](CO)NC(=O)[C@H](COP(=O)(O)O)NC(=O)[C@H](CC(N)=O)NC(=O)[C@H](C)NC(=O)[C@H](CC(N)=O)NC(=O)[C@H](CCCCN)NC(=O)[C@H](CC(N)=O)NC(=O)[C@H](CCCCN)NC(=O)[C@@H](N)CCC(=O)O)C(C)C)[C@@H](C)O)[C@@H](C)O)[C@@H](C)OP(=O)(O)O)[C@@H](C)O)[C@@H](C)O)[C@@H](C)O)C(=O)N[C@@H](CC(=O)O)C(=O)N[C@@H](CCC(N)=O)C(=O)N[C@@H](CO)C(=O)N[C@@H](CCCCN)C(=O)N[C@@H](C)C(=O)N[C@@H](Cc1c[nH]c2ccccc12)C(=O)N[C@@H](CC(N)=O)C(=O)N[C@@H](CCCNC(=N)N)C(=O)O [compound 8] (H-EKNKNAN[pS]SPVASTTPSASA[pT]TNPASATTLDQSKAWNR-OH) | 
7 | 15 ± 1.5 | CC(C)C[C@H](NC(=O)[C@@H](NC(=O)[C@@H](NC(=O)[C@H](C)NC(=O)[C@H](CO)NC(=O)[C@H](C)NC(=O)[C@@H]1CCCN1C(=O)[C@H](CC(N)=O)NC(=O)[C@@H](NC(=O)[C@@H](NC(=O)[C@H](C)NC(=O)[C@H](CO)NC(=O)[C@H](C)NC(=O)[C@H](CO)NC(=O)[C@@H]1CCCN1C(=O)[C@@H](NC(=O)[C@@H](NC(=O)[C@H](CO)NC(=O)[C@H](C)NC(=O)[C@@H](NC(=O)[C@@H]1CCCN1C(=O)[C@H](CO)NC(=O)[C@H](COP(=O)(O)O)NC(=O)[C@H](CC(N)=O)NC(=O)[C@H](C)NC(=O)[C@H](CC(N)=O)NC(=O)[C@H](CCCCN)NC(=O)[C@H](CC(N)=O)NC(=O)[C@H](CCCCN)NC(=O)[C@@H](N)CCC(=O)O)C(C)C)[C@@H](C)O)[C@@H](C)O)[C@@H](C)O)[C@@H](C)OP(=O)(O)O)[C@@H](C)O)[C@@H](C)O)C(=O)N[C@@H](CC(=O)O)C(=O)N[C@@H](CCC(N)=O)C(=O)N[C@@H](CO)C(=O)N[C@@H](CCCCN)C(=O)N[C@@H](C)C(=O)N[C@@H](Cc1c[nH]c2ccccc12)C(=O)N[C@@H](CC(N)=O)C(=O)N[C@@H](CCCNC(=N)N)C(=O)O [compound 9] (H-EKNKNAN[pS]SPVASTTPSASAT[pT]NPASATTLDQSKAWNR-OH) | 

Reference: article PMC7939381, “MMP activation–associated aminopeptidase N reveals a bivalent 14-3-3 binding motif” (The Journal of Biological Chemistry, 2021)
